Test results from ChEMBL document CHEMBL2021770, “Potent and Selective Inhibitors of Long Chain l-2-Hydroxy Acid Oxidase Reduced Blood Pressure in DOCA Salt-Treated Rats” (ACS Med Chem Lett, 2011).
The source made the active and inactive calls. The rule behind the calls is not given here.

Key:
2-Hydroxyacid oxidase 2 = target: T1, 2-Hydroxyacid oxidase 2 (Rattus norvegicus, UniProt Q07523); test: Inhibition of rat His6-tagged Hao2 expressed in Escherichia coli BL21/DE3 using 2-hydroxyoctanoic acid as substrate measured every 10 secs by spectrophotometry
T1 sequence (Q07523 whole entry): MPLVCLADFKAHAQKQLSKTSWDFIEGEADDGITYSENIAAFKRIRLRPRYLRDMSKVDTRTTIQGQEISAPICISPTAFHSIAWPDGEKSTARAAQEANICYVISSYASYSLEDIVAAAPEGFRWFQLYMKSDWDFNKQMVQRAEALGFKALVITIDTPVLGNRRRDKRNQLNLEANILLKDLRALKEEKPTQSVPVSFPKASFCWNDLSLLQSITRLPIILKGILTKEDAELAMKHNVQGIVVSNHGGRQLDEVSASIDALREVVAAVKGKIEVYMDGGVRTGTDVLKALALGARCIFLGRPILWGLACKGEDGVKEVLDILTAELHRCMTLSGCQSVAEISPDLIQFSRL

Cytochrome P450 3A4 = Cytochrome P450 3A4 (Homo sapiens, UniProt P08684); test: Inhibition of CYP3A4; assay type: ADME
Sequence of Cytochrome P450 3A4 (P08684 whole entry): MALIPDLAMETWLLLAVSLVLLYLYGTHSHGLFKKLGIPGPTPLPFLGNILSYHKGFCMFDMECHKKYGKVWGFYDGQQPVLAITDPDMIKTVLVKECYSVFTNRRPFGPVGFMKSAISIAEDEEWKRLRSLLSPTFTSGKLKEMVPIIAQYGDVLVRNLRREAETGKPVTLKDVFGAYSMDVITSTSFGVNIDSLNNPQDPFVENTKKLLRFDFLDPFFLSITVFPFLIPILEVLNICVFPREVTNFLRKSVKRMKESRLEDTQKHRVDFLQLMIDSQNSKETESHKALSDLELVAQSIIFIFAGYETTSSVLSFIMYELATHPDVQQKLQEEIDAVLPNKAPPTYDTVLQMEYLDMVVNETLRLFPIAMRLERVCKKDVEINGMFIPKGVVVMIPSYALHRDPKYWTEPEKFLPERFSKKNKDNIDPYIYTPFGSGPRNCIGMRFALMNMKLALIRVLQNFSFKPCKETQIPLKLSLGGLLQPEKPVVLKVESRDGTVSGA

Cytochrome P450 2C9 = Cytochrome P450 2C9 (Homo sapiens, UniProt P11712); test: Inhibition of CYP2C9; assay type: ADME
Sequence of Cytochrome P450 2C9 (P11712 whole entry): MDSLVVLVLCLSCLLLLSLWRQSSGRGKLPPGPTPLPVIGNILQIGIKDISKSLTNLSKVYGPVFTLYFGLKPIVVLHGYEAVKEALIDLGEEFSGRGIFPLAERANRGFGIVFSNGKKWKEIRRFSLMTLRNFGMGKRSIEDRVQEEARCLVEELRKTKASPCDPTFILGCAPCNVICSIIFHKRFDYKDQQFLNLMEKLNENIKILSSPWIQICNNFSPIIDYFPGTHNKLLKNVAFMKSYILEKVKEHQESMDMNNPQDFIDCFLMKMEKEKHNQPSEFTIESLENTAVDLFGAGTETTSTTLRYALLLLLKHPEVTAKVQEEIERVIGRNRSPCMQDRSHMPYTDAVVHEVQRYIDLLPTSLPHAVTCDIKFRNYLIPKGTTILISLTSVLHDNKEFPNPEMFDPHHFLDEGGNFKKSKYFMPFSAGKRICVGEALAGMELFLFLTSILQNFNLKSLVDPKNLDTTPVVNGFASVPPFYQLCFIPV

Cytochrome P450 2D6 = Cytochrome P450 2D6 (Homo sapiens, UniProt P10635); test: Inhibition of CYP2D6; assay type: ADME
Sequence of Cytochrome P450 2D6 (P10635 whole entry): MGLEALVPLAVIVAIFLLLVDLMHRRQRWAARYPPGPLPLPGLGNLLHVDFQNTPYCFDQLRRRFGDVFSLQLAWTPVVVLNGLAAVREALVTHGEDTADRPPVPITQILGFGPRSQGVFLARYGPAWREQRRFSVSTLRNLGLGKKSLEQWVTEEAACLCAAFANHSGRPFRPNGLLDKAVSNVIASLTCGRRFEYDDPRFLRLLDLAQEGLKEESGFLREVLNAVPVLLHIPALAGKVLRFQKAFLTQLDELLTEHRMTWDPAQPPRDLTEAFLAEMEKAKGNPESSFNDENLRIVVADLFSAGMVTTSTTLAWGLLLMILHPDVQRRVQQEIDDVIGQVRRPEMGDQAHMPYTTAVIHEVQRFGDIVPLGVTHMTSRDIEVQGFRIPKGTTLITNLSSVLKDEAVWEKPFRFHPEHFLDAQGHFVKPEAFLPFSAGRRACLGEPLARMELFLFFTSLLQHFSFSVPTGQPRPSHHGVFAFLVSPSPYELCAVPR

Cytochrome P450 2C19 = Cytochrome P450 2C19 (Homo sapiens, UniProt P33261); test: Inhibition of CYP2C19; assay type: ADME
Sequence of Cytochrome P450 2C19 (P33261 whole entry): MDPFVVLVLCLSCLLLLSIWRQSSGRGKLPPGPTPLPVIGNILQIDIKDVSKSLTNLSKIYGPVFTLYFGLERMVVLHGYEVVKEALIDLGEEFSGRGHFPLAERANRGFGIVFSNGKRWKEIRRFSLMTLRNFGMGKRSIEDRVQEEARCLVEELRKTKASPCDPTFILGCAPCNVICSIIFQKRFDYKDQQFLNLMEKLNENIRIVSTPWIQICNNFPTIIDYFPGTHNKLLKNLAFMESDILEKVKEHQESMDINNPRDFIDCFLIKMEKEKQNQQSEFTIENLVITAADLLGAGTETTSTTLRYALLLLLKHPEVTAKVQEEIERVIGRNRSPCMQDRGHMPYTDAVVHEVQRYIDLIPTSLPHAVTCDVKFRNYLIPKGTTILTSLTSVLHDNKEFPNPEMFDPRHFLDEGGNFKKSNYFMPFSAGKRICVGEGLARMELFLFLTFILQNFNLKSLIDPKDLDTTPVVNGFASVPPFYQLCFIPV

Cytochrome P450 1A2 = target: T2, Cytochrome P450 1A2 (Homo sapiens, UniProt P05177); test: Inhibition of CYP1A2; assay type: ADME
T2 sequence (P05177 whole entry): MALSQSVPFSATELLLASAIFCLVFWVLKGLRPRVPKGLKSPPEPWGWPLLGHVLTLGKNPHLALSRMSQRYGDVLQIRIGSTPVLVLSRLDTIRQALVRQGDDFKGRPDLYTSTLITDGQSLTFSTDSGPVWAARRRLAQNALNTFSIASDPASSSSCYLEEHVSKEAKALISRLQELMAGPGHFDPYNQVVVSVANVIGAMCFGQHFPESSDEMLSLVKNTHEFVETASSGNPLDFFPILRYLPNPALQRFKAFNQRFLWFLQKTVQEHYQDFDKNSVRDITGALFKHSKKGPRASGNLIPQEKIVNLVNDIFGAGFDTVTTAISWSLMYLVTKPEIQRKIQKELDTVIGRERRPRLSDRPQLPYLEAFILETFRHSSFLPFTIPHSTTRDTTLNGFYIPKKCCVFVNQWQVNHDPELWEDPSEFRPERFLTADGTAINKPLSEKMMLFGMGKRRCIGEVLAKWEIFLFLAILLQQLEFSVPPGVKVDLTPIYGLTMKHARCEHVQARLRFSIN

[1] = Induction of cytochrome P450 at 10 uM; assay type: ADME
[2] = Plasma protein binding in rat; assay type: ADME, cell-free; details: read-out: PPB
[3] = target: T3, Nuclear receptor subfamily 1 group I member 2 (Homo sapiens, UniProt O75469); test: Induction of PXR at 100 uM
T3 sequence (O75469 whole entry): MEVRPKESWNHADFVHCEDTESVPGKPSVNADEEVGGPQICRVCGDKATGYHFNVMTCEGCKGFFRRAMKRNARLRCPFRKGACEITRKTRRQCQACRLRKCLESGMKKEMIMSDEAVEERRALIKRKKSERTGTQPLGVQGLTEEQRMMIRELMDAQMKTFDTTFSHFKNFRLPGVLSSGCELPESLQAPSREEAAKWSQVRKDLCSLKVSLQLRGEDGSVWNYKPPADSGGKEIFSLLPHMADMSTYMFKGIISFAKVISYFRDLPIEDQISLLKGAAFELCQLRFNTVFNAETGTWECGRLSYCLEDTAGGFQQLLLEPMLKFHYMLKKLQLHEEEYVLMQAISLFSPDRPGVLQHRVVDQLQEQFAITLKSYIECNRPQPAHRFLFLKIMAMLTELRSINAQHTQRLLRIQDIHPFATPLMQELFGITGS

[4] = Clearance in rat at 1 mg/kg, iv; assay type: ADME, organism-based; set-up: dose 1 mg/kg, route intravenous; details: in vivo
[5] = Volume of distribution at steady state in rat at 1 mg/kg, iv; assay type: ADME, organism-based; set-up: dose 1 mg/kg, route intravenous; details: in vivo, read-out: Vdss
[6] = Cmax in rat at 10 mg/kg, po; assay type: ADME, organism-based; set-up: dose 10 mg/kg, route oral; details: in vivo
[7] = Tmax in rat at 10 mg/kg, po; assay type: ADME, organism-based; set-up: dose 10 mg/kg, route oral; details: in vivo
[8] = AUC (0 to 8 hrs) in rat at 1 mg/kg, iv; assay type: ADME, organism-based; set-up: time < 8 hr, dose 1 mg/kg, route intravenous; details: plasma
[9] = AUC (0 to 8 hrs) in rat at 10 mg/kg, po; assay type: ADME, organism-based; set-up: time < 8 hr, dose 10 mg/kg, route oral; details: plasma
[10] = Elimination half life in rat at 1 mg/kg, iv; assay type: ADME, organism-based; set-up: dose 1 mg/kg, route intravenous; details: in vivo, read-out: beta t1/2 (converted)
[11] = Elimination half life in rat at 10 mg/kg, po; assay type: ADME, organism-based; set-up: dose 10 mg/kg, route oral; details: in vivo, read-out: beta t1/2 (converted)
[12] = Oral bioavailability in rat at 10 mg/kg; assay type: ADME, organism-based; details: in vivo
[13] = Plasma concentration in Wistar rat at 3 mg/kg, po bid administered for 15 days measured 1 hr post-last dose; assay type: ADME, organism-based; set-up: dose 3 mg/kg, route oral
[14] = Plasma concentration in Wistar rat at 30 mg/kg, po bid administered for 15 days measured 1 hr post-last dose; assay type: ADME, organism-based; set-up: dose 30 mg/kg, route oral
Plasma [15] = test: Plasma concentration in Wistar rat at 3 mg/kg, po bid administered for 15 days measured 12 to 15 hrs post-last dose; assay type: ADME, organism-based; set-up: dose 3 mg/kg, route oral; details: in vivo
Plasma [16] = test: Plasma concentration in Wistar rat at 30 mg/kg, po bid administered for 15 days measured 12 to 15 hrs post-last dose; assay type: ADME, organism-based; set-up: dose 30 mg/kg, route oral; details: in vivo
Kidney [17] = test: Drug uptake in Wistar rat kidney at 3 mg/kg, po bid administered for 15 days measured 1 hr post-last dose; assay type: ADME, organism-based; set-up: dose 3 mg/kg, route oral; details: in vivo
Kidney [18] = test: Drug uptake in Wistar rat kidney at 30 mg/kg, po bid administered for 15 days measured 1 hr post-last dose; assay type: ADME, organism-based; set-up: dose 30 mg/kg, route oral; details: in vivo
Kidney [19] = test: Drug uptake in Wistar rat kidney at 3 mg/kg, po bid administered for 15 days measured 12 to 15 hrs post-last dose; assay type: ADME, organism-based; set-up: dose 3 mg/kg, route oral; details: in vivo
[20] = Drug metabolism in rat liver microsomes assessed as metabolic rate per 0.125 mg/mL protein; assay type: ADME, Microsome
2-Hydroxyacid oxidase 1 = target: T4, 2-Hydroxyacid oxidase 1 (Rattus norvegicus, UniProt B0BNF9); test: Inhibition of rat His6-tagged Hao1 expressed in Escherichia coli BL21/DE3 using glcolic acid as substrate measured every 10 secs by spectrophotometry
T4 sequence (B0BNF9 whole entry): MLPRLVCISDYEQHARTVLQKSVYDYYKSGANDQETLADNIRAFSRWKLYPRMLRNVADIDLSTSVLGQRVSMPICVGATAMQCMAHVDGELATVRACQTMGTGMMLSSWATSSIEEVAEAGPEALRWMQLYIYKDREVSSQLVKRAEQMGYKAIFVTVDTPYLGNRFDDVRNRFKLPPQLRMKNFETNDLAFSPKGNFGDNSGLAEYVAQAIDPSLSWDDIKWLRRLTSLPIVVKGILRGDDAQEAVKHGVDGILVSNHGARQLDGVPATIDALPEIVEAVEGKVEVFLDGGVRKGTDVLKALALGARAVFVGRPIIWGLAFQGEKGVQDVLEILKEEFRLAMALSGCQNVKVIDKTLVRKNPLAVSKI

[21] = target: Hydroxycarboxylic acid receptor 2 (Homo sapiens) (UniProt Q8TDS4); test: Agonist activity at human GPR109a at 10 uM; assay type: functional
Sequence of Hydroxycarboxylic acid receptor 2 (Homo sapiens) (Q8TDS4 whole entry): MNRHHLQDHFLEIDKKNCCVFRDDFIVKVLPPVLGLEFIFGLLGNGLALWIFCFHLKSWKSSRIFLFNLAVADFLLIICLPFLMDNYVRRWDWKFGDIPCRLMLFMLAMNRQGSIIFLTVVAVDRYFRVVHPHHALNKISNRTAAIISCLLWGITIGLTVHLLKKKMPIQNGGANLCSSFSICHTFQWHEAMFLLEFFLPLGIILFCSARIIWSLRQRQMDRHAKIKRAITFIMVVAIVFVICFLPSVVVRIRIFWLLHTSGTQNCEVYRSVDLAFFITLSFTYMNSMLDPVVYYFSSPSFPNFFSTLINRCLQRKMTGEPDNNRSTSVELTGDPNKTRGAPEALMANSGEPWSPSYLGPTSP

HepG2 = test: Cytotoxicity against human HepG2 cells; assay type: cell-based
Rattus norvegicus [22] = test: Antihypertensive activity in DOCA-salt treated Wistar rat assessed as decrease in systolic blood pressure at 3 mg/kg, po bid administered 29 days after DOCA-salt-challenge for 15 days 12 to 15 hrs post-last dose by plethysmography; assay type: functional
Rattus norvegicus [23] = test: Antihypertensive activity in DOCA-salt treated Wistar rat assessed as decrease in systolic blood pressure at 30 mg/kg, po bid administered 29 days after DOCA-salt-challenge for 15 days 12 to 15 hrs post-last dose by plethysmography; assay type: functional, Artery
Kidney [24] = test: Drug uptake in Wistar rat kidney at 30 mg/kg, po bid administered for 15 days measured 12 to 15 hrs post-last dose; assay type: ADME, organism-based; set-up: dose 30 mg/kg, route oral; details: in vivo
Rattus norvegicus [25] = test: Ex-vivo inhibition of Hao2 in DOCA-salt treated Wistar rat kidney using [3H]-2-hydroxyoctanate as substrate assessed as inhibition of [3H]-H2O production at 3 mg/kg, po bid administered 29 days post DOCA-challenge for 15 days measured 1 hr post-last dose by microbeta counting relative to vehicle-treated control; assay type: functional
Rattus norvegicus [26] = test: Ex-vivo inhibition of Hao2 in DOCA-salt treated Wistar rat kidney using [3H]-2-hydroxyoctanate as substrate assessed as inhibition of [3H]-H2O production at 30 mg/kg, po bid administered 29 days post DOCA-challenge for 15 days measured 1 hr post-last dose by microbeta counting relative to vehicle-treated control; assay type: functional
Rattus norvegicus [27] = test: Ex-vivo inhibition of Hao2 in DOCA-salt treated Wistar rat kidney using [3H]-2-hydroxyoctanate as substrate assessed as inhibition of [3H]-H2O production at 3 mg/kg, po bid administered 29 days post DOCA-challenge for 15 days measured 12 to 15 hrs post-last dose by microbeta counting relative to vehicle-treated control; assay type: functional
Rattus norvegicus [28] = test: Ex-vivo inhibition of Hao2 in DOCA-salt treated Wistar rat kidney using [3H]-2-hydroxyoctanate as substrate assessed as inhibition of [3H]-H2O production at 30 mg/kg, po bid administered 29 days post DOCA-challenge for 15 days measured 12 to 15 hrs post-last dose by microbeta counting relative to vehicle-treated control; assay type: functional
Rattus norvegicus [29] = test: Antihypertensive activity in Wistar rat assessed as reduction in DOCA-salt-induced systolic blood pressure elevation at 30 mg/kg, po bid administered on day 14 post DOCA-challenge for 21 days measured 12 to 15 hrs post-last dose by plethysmography relative to vehicle-treated control; assay type: functional, organism-based; set-up: dose 30 mg/kg; details: Artery
Rattus norvegicus [30] = species on record: Rattus norvegicus; test: Selectivity ratio of IC50 for rat Hao1 to IC50 for rat Hao2

SMILES | IC50 (2-Hydroxyacid oxidase 2) [µM] | IC50 (Cytochrome P450 3A4) [µM] | IC50 (Cytochrome P450 2C9) [µM] | IC50 (Cytochrome P450 2D6) [µM] | IC50 (Cytochrome P450 2C19) [µM] | IC50 (Cytochrome P450 1A2) [µM] | Activity [1] | fraction unbound [2] | Activity [3] | clearance [4] [mL/min/kg] | Vd [5] [L/kg] | Cmax [6] [µM] | Tmax [7] [h] | AUC(0-t) at 8 h [8] [µM·h] | AUC(0-t) at 8 h [9] [µM·h] | half-life [10] [h] | half-life [11] [h] | bioavailability [12] [%] | concentration at 1 h [13] [µM] | concentration at 1 h [14] [µM] | further results
Cc1[nH]nc(C(=O)O)c1Cc1cc2ccccc2s1 | 0.3 | > 10 | > 10 | > 10 | > 10 | > 10 | Not Active | < 0.01 | Not Active | 0.52 | 0.14 | 134 | 0.25 | 97 | 517 | 3.7 | 4.1 | 53 | 48 | 157 | concentration (Plasma [15]): 12 µM; concentration (Plasma [16]): 86 µM; Drug uptake (Kidney [17]): 34 nmol/g; Drug uptake (Kidney [18]): 113 nmol/g; Drug uptake (Kidney [19]): 13 nmol/g; Drug metabolism [20]: 0.02 nmol/min/mg
Cc1[nH]nc(C(=O)O)c1CCc1ccc(-c2ccccc2)cc1 | 0.91 |  |  |  |  |  |  |  |  |  |  |  |  |  |  |  |  |  |  |  | 
Cc1n[nH]c(C(=O)O)c1Cc1cccc(-c2ccc(F)cc2)c1 | 0.3 | > 10 | > 10 | > 10 | > 10 | > 10 | Not Active | < 0.01 | Not Active | 8 | 0.6 | 24 | 0.25 | 7.1 | 27 | 1.7 | 1.5 | 38 | 2.2 | 8 | IC50 (2-Hydroxyacid oxidase 1): 45.7 µM; Activity [21]: inactive; IC50 (HepG2): > 100 µM; Activity (Rattus norvegicus [22]): 32 mmHg; Activity (Rattus norvegicus [23]): 31 mmHg; concentration (Plasma [15]): 0.2 µM; concentration (Plasma [16]): 1.9 µM; Drug uptake (Kidney [17]): 10 nmol/g; Drug uptake (Kidney [18]): 24 nmol/g; Drug uptake (Kidney [19]): 3 nmol/g; Drug uptake (Kidney [24]): 7 nmol/g; inhibition in vivo at 3 mg/kg (Rattus norvegicus [25]): 29%; inhibition in vivo at 30 mg/kg (Rattus norvegicus [26]): 38%; inhibition in vivo at 3 mg/kg (Rattus norvegicus [27]): 0%; inhibition in vivo at 30 mg/kg (Rattus norvegicus [28]): 28%; Activity (Rattus norvegicus [29]): Active; Ratio IC50 (Rattus norvegicus [30]): 150; Drug metabolism [20]: 0.003 nmol/min/mg
